Assay results published in ChEMBL document CHEMBL1157709, “Enhancement of EGFR tyrosine kinase inhibition by C-C multiple bonds-containing anilinoquinazolines” (Bioorg Med Chem, 2010).
Active and inactive are the calls of the source. The calls are words filed in the database; no cut-off is given here.

Key:
[1] = target: T1, Epidermal growth factor receptor (Homo sapiens, UniProt P00533); test: Inhibition of recombinant EGFR by ELISA
[2] = target: T1, Epidermal growth factor receptor; test: Reversible inhibitory activity of EGF-induced EGFR phosphorylation in human A431 cells at 10 to 100 nM by immunoblot analysis; conditions: A-431
[3] = tested on: A-431; test: Induction of apoptosis in human A431 cells assessed as late apoptotic/necrotic cells level at 3 uM after 12 hrs by annexin V/propidium iodide staining-based flow cytometry (Rvb=0.6+/-0.1%); type: functional
[4] = tested on: A-431; test: Cell cycle arrest in human A431 cells by accumulation at G1 phase at 1 uM after 24 hrs by propidium iodide staining-based flow cytometry (reference value: 39.8+/-0.2%); type: functional
[5] = tested on: A-431; test: Induction of apoptosis in human A431 cells assessed as early apoptotic cells level at 3 uM after 12 hrs by annexin V/propidium iodide staining-based flow cytometry (Rvb=3.1+/-0.5%); type: functional
[6] = tested on: A-431; test: Cell cycle arrest in human A431 cells by accumulation at G1 phase at 3 uM after 24 hrs by propidium iodide staining-based flow cytometry (reference value: 39.8+/-0.2%); type: functional
[7] = tested on: A-431; test: Induction of apoptosis in human A431 cells assessed as pre-necrotic cells level at 3 uM after 12 hrs by annexin V/propidium iodide staining-based flow cytometry (Rvb=0.9+/-0.1%); type: functional
[8] = tested on: A-431; test: Induction of apoptosis in human A431 cells assessed as viable cells level at 3 uM after 12 hrs by annexin V/propidium iodide staining-based flow cytometry (reference value: 95.4+/-0.5%); type: functional
[9] = tested on: A-431; test: cells; type: functional; conditions: Homo sapiens, A-431, 72 h
Description: Growth inhibition of human A431 cells after 72 hrs by MTT assay

[10] = tested on: A-431; test: Cell cycle arrest in human A431 cells by accumulation at S phase at 3 uM after 24 hrs by propidium iodide staining-based flow cytometry (reference value: 48.5+/-4.2%); type: functional
[11] = tested on: A-431; test: Cell cycle arrest in human A431 cells by accumulation at G2/M phase at 3 uM after 24 hrs by propidium iodide staining-based flow cytometry (reference value: 11.1+/-3.1%); type: functional
[12] = tested on: A-431; test: Cell cycle arrest in human A431 cells by accumulation at S phase at 1 uM after 24 hrs by propidium iodide staining-based flow cytometry (reference value: 48.5+/-4.2%); type: functional
[13] = tested on: A-431; test: Cell cycle arrest in human A431 cells by accumulation at G2/M phase at 1 uM after 24 hrs by propidium iodide staining-based flow cytometry (reference value: 11.1+/-3.1%); type: functional

T1 sequence (P00533 whole entry): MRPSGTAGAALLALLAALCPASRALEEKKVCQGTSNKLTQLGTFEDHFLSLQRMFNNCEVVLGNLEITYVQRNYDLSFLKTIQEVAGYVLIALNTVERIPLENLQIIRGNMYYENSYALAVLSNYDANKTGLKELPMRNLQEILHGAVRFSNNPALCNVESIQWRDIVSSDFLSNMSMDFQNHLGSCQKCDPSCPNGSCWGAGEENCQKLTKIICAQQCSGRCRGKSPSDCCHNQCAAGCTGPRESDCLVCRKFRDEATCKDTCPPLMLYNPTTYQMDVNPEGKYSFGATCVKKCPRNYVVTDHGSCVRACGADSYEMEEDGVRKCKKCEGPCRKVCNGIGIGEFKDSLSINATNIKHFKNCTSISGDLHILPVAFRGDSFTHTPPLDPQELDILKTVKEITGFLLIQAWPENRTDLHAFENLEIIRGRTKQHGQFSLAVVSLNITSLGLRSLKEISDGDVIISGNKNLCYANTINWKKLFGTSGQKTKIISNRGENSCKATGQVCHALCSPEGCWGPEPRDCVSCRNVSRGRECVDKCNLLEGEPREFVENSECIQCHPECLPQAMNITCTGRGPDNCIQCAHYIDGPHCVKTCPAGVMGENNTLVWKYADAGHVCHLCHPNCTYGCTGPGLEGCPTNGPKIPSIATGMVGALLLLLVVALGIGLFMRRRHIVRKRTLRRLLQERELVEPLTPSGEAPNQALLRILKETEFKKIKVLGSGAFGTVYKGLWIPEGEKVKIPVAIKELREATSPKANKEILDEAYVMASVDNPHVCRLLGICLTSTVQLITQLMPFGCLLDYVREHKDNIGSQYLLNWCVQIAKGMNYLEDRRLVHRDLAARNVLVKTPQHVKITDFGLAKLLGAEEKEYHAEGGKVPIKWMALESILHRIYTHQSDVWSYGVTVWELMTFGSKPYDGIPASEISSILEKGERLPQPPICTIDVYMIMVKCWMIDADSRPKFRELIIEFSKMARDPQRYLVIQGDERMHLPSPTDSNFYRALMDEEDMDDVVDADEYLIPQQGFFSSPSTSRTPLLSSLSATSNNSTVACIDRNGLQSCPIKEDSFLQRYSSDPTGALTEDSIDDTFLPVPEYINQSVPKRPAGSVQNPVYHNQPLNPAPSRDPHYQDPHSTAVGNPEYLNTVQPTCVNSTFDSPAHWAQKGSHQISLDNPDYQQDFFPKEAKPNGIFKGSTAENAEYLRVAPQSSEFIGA

SMILES: C=CCCCCOc1cc2c(Nc3ccc(F)c(Cl)c3)ncnc2cc1OC
- IC50 [1]: 32.6 nM

SMILES: C#CCOc1cc2c(Nc3ccc(F)c(Cl)c3)ncnc2cc1OC
- inhibition [2]: Active
- IC50 [1]: 14.8 nM

SMILES: C#CCCCOc1cc2c(Nc3ccc(F)c(Cl)c3)ncnc2cc1OC
- Activity [3]: 4.2%
- Activity [4]: 53.5%
- Activity [5]: 13.5%
- Activity [6]: 65.3%
- Activity [7]: 1.1%
- Activity [8]: 81.2%
- GI50 [9]: 221 nM
- IC50 [1]: 2.53 nM
- Activity [10]: 22.1%
- Activity [11]: 12.5%
- Activity [12]: 34.7%
- Activity [13]: 11.7%

SMILES: C#CCCCCCOc1cc2c(Nc3ccc(F)c(Cl)c3)ncnc2cc1OC
- IC50 [1]: 32.7 nM

SMILES: C#CCCCOc1cc2c(Nc3cccc(Cl)c3)ncnc2cc1OC
- IC50 [1]: 17.7 nM

SMILES: C#Cc1cc2c(Nc3ccc(F)c(Cl)c3)ncnc2cc1OC
- IC50 [1]: > 1000 nM

SMILES: C#CCOc1cc2c(Nc3cccc(Cl)c3)ncnc2cc1OC
- inhibition [2]: Active
- IC50 [1]: 25.9 nM

SMILES: CCCCCCOc1cc2c(Nc3ccc(F)c(Cl)c3)ncnc2cc1OC
- IC50 [1]: 106 nM
